In PubChem BioAssay (NCI):
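Five compound concentrations were applied to cells in 96-well plates for 48 hours; endpoints were derived by simple linear interpolation of the resulting dose-response curve. GI50: concentration for 50% inhibition of growth. The concentration for full growth arrest is given as TGI.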

Key:
Test in all cases: DTP human tumour cell line panel, 48 h
[1] = test system: DU-145 prostate
[2] = test system: HCC-2998 colon
[3] = test system: HOP-62 NSCLC
[4] = test system: KM12 colon
[5] = test system: LOX IMVI melanoma
[6] = test system: NCI-H23 lung
[7] = test system: RXF 393 renal
[8] = test system: SF-268 CNS
[9] = test system: SF-295 CNS
[10] = test system: T-47D breast

Structure (SMILES) | GI50 [1] [µM] | TGI [1] [µM] | GI50 [2] [µM] | TGI [2] [µM] | GI50 [3] [µM] | TGI [3] [µM] | GI50 [4] [µM] | TGI [4] [µM] | GI50 [5] [µM] | TGI [5] [µM] | GI50 [6] [µM] | TGI [6] [µM] | GI50 [7] [µM] | TGI [7] [µM] | GI50 [8] [µM] | TGI [8] [µM] | GI50 [9] [µM] | TGI [9] [µM] | GI50 [10] [µM] | TGI [10] [µM]
COC(=O)c1cc2c3ccccc3[nH]c2c2ncccc12 | 47.1 | > 100 | 73.8 | > 100 | 68.9 | > 100 | 81.1 | > 100 | 9.46 | > 100 | 27.2 | > 100 | > 100 | > 100 | 53.5 | > 100 | 36.9 | > 100 | 3.12 | > 100
NCC(=O)NS(=O)(=O)OC[C@H]1O[C@@H](n2cnc3c(N)ncnc32)[C@H](O)[C@@H]1O | 0.699 | 5.61 | 2.04 | 4.34 | 0.368 | 1.68 | 3.22 | 14.4 | 1.68 | 3.52 | 2.56 | 7.04 | 2.11 | 4.2 | 0.503 | 5.65 | 0.861 | 2.56 | 2.32 | 9.21
COc1cc(OC)cc(-c2ccc(-c3ccc(C(=N)N)o3)o2)c1 | 4.28 | 15.2 | 2.05 | 3.94 | 5.65 | 19.1 | 2.45 | 6.56 | 1.79 | 3.29 | 9.25 | 22.3 | 1.93 | 5.24 | 3.4 | 13.2 | 2.06 | 4.25 | 2.08 | 5.04
C=C(CN1CCc2ccccc2C1)c1ccc(C(=O)Nc2cnccn2)cc1 | 30.1 | 89.7 | 36.1 | > 100 | 27.1 | > 100 | 12.5 | 56.5 | 9.18 | > 100 | 18.4 | > 100 | 39 | > 100 | 60.4 | > 100 | 19.1 | 73 | > 100 | > 100
O=c1oc2ccc(F)cc2c(=O)n1-c1ccc(F)cc1F | 4.18 | > 100 | 3.9 | 27.7 | 2.39 | 8.05 | 3.38 | 14 | 3.79 | 22 | 2.96 | 19.7 | 2.52 | 6.99 | 3.34 | 52.1 | 2.33 | 5.58 | 2.28 | 7.08
CC1=C(CCCNS(C)(=O)=O)C2=C(C)C3(CC3)[C@@](C)(O)C(=O)C2=C1 | 0.369 | 17.4 | 1.52 | 4.51 | 0.421 | 2.33 | 3.99 | > 100 | 1.8 | 6.34 | 0.269 | 1.83 | 0.199 | 0.419 | 0.373 | 14.2 | 0.634 | 19.9 | 0.563 | 6.02
COc1cnc2cc(C(=O)O)c3c([N+](=O)[O-])cccc3c2c1 | – | > 100 | – | > 100 | – | > 100 | – | > 100 | – | > 100 | – | > 100 | – | > 100 | – | > 100 | – | > 100 | – | > 100
CCNCCNc1cc(-c2ccc(C(=O)OC)cc2)c(C#N)c2nc3ccccc3n12 | 2.65 | > 100 | 2.3 | > 100 | 2.48 | 9.46 | 2.59 | > 100 | 1.53 | 2.99 | 3.82 | > 100 | 1.42 | 2.85 | 2.54 | 16.2 | 1.57 | 3.12 | 2.16 | 5.31
O=C1/C(=C/c2ccc(Br)cc2)C=C(c2ccccc2)N1CCc1ccccc1 | 2.54 | 15.8 | 7.52 | > 100 | 0.347 | 1.22 | 43.6 | > 100 | 0.82 | 10.8 | 1.69 | 14.6 | 1.26 | 3.78 | 2.27 | 16.3 | 0.332 | 1.59 | 13.3 | > 100
CC1CCC2(C(=O)O)CCC3(C)C(=CCC4C5(C)CC(O)C(O)C(C)(CO)C5C(O)CC43C)C2C1C (stereo not given) | – | > 100 | – | > 100 | – | > 83.7 | – | > 100 | – | 42.3 | – | > 100 | – | > 64.1 | – | > 87.2 | – | > 100 | – | > 84.7
N#Cc1ccc(C#Cc2ccccc2C#CCCCCO)cc1 | 16 | 29.8 | 18.5 | 33.1 | 11.7 | 24 | 17.8 | 36.2 | 18.3 | 32.5 | 17.2 | 33.8 | 7.05 | 24.4 | 18.9 | 40.7 | 21.3 | 41 | 13 | 28
CC1OC(O[C@H]2C[C@@H](O)[C@]3(CO)[C@H]4[C@H](O)C[C@]5(C)[C@@H](C6=CC(=O)OC6)CC[C@]5(O)[C@@H]4CC[C@]3(O)C2)C(O)C(O)C1O (stereo not given in full) | 19.3 | 34 | 20.2 | 36.6 | 21.7 | 51.9 | 17.8 | 32.3 | 19 | 34 | 21.5 | 41.8 | 27.5 | 75.6 | 18.9 | 33.5 | 19.3 | 35.3 | 24.9 | 51.5
